Legend:
human MLKL (full length) = human MLKL (full length) (Homo sapiens (Human), UniProt Q8NB16); experiment: KINOMEscan binding assay, human MLKL (full length); conditions: hMLKL, Table 25; read-out: MLKL (KD)
Outline: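 Active-site competition binding: DNA-tagged kinase (T7 phage fusion from BL21-derived E. coli lysate, or HEK-293-expressed) captured on immobilized-ligand beads, with bound kinase in the eluate quantified by qPCR. Compounds ran as 11-point 3-fold dilutions, 1% DMSO, top 30,000 nM for most. Kd came from a Hill fit (slope −1).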

endogenous MLKL in MDF = endogenous MLKL in MDF (Mus musculus (Mouse), UniProt Q9D2Y4); experiment: Degradation assay: endogenous MLKL in MDF (western blot); conditions: MDF cells, 24 h incubation with compound, MLKL adjusted for loading with GAPDH, normalized to DMSO only control, read-out: Degradation of endogenous MLKL in MDF (DC50 cell-based assay)
Protocol: Degradation Assay: Screening Compounds Procedure to Evaluate the Activity of Compounds in Degrading Endogenous MLKL in Human and Mouse Cell
The mouse dermal fibroblast (MDF) cell line was seeded the day before the experiment in a 24-well plate at a cell density of […] per well in a volume of 0.5 mL per well and left to attach overnight. The human monocyte cell line (U937) was seeded on the day of the experiment in a 24-well plate at a cell density of […] per well in a volume of 0.5 mL per well.
The compound was diluted in DMSO with a starting concentration of 10 mM and titrated stepwise with a dilution of 1:5. 0.5 μL of the compound dilution was added to the appropriate well to achieve a final concentration of 10; 2; 0.4; 0.08 and 0.016 μM. A DMSO only well was included as control.
The cells were incubated for 24 h in the presence of the compound at 37° C. and 10% CO2.
After the 24 h incubation period, the medium was removed and cells washed with 0.5 mL PBS. The cells were then lysed directly in 60 μL of 1×SDS gel loading buffer.
The cell lysate was heat-denatured at […] for 10 min. 10 μL of lysate per well were run on 18-well 4-15% Criterion TGX stain free gels (BIO-RAD). The proteins were then transferred onto nitrocellulose membrane with a wet transfer protocol in the Criterion Blotter (BIO-RAD).
Membranes were blocked with 5% skim milk in TBST. Primary antibody against MLKL (clone 3H1, MABC604 Merck) was used at 1:2000 dilution in TBST with 1% BSA and left shaking over night at 4° C. After washes with TBST, the membranes were incubated with goat anti-rat IgG HRP-conjugated antibody (Southern Biotech) in 1% skim milk TBST at 1:10000 dilution for 1 h at room temperature. After TBST washes the bands were imaged on the ChemiDoc MP Imaging System (BIO-RAD) with Immobilion Western Chemiluminescent HRP Substrate Forte (Millipore). The loading control GAPDH was probed for with rabbit anti-GAPDH (CST 14C10) at 1:2000 dilution in 1% BSA TBST over night at 4° C. TBST washes were followed by incubation with goat anti-rabbit IgG HRP-conjugated antibody (Southern Biotech) in 1% skim milk TBST at 1:10000 dilution for 1 h at room temperature followed by TBST washes. The signal was detected as described above.
The band intensity was measured in the ImageLab Software (BIO-RAD) and the MLKL values adjusted for loading with GAPDH. The percentage of degradation was calculated by normalizing the compound treated values to the DMSO only control.

[1] = system: Immortalised Mouse Dermal Fibroblasts (MDFs); experiment: Cellular assay: inhibition of TSI induced necroptosis, CellTitre-Glo viability; conditions: Mus musculus, Fibroblast; MDF, 3 hours TSI cocktail, Table 27; read-out: Inhibition of TSI-induced necroptosis (IC50 cell-based assay) in MDF
Outline: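 Immortalised mouse dermal fibroblasts (2200 cells/well) pretreated 30 min with compound, 10-point 1:3 series from 36 μM, 0.3% DMSO. Then 3 h at 37° C. with TNF (100 ng/ml), Smac mimetic (500 nM) and IDN-6556 (10 μM). CellTiter-Glo luminescence normalised to DMSO (100%) and DMSO+TSI (0%); IC50 from 4-parameter logistic fit.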

Sequence of human MLKL (full length) (Q8NB16 whole entry, the tested form may be a part): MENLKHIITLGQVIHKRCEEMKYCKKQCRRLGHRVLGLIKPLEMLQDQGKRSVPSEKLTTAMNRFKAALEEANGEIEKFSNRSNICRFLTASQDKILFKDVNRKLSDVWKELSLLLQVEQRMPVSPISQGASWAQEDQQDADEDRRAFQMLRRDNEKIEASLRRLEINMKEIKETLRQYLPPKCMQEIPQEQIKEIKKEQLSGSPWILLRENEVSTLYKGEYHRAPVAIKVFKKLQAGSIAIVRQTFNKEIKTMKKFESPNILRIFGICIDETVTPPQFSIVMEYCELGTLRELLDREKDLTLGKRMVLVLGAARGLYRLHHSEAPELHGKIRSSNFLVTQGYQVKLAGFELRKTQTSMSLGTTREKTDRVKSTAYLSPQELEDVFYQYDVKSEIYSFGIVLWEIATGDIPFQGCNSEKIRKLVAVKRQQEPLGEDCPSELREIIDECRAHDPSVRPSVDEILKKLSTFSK
Sequence of endogenous MLKL in MDF (Q9D2Y4 whole entry): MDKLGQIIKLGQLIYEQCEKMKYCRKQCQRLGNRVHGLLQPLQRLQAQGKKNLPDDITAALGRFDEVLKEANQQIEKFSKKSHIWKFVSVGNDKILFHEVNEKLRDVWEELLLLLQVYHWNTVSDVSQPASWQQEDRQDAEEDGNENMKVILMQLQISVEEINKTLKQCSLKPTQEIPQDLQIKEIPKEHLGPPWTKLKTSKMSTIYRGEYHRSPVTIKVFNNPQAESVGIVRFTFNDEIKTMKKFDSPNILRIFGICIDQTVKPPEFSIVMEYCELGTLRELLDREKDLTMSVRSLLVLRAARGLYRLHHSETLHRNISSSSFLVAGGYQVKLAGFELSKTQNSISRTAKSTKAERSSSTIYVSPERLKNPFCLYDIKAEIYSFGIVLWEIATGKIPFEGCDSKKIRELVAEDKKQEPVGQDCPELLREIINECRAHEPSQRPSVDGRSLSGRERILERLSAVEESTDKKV

CCS(=O)(=O)Nc1ccc(-c2nn(C)c3c(-c4cnn(C5CCN(C(=O)[C@H]6C[C@H](Nc7cccc8c7C(=O)N(C7CCC(=O)NC7=O)C8=O)C6)CC5)c4)cnc(N)c23)cc1F (stereo partly drawn) [Compound 1102, N-{4-[4-amino-1-methyl-7-(1-{1-[(trans)-3-{[2-(2,6-dioxopiperidin-3-yl)-1,3-dioxo-2,3-dihydro-1H-isoindol-4-yl]amino}cyclobutanecarbonyl]piperidin-4-yl}-1H-pyrazol-4-yl)-1H-pyrazolo[4,3-c]pyridin-3-yl]-2-fluorophenyl}ethane-1-sulfonamide]
Kd (human MLKL (full length)): < 0.01 µM | DC50 (endogenous MLKL in MDF): < 1 µM | IC50 [1]: < 1 µM

C[C@H](Oc1cc(-c2nn(C)c3c(-c4cnn(C5CCN(C(=O)N6CCN(c7cccc8c7C(=O)N(C7CCC(=O)NC7=O)C8=O)CC6)CC5)c4)cnc(N)c23)ccc1NS(=O)(=O)C(F)F)c1ccc(F)cc1 (stereo partly drawn) [Compound 1103, N-(4-{4-amino-7-[1-(1-{4-[2-(2,6-dioxopiperidin-3-yl)-1,3-dioxo-2,3-dihydro-1H-isoindol-4-yl]piperazine-1-carbonyl}piperidin-4-yl)-1H-pyrazol-4-yl]-1-methyl-1H-pyrazolo[4,3-c]pyridin-3-yl}-2-[(1S)-1-(4-fluorophenyl)ethoxy]phenyl)-1,1-difluoromethanesulfonamide]
Kd (human MLKL (full length)): < 0.01 µM | DC50 (endogenous MLKL in MDF): < 1 µM | IC50 [1]: < 1 µM

C[C@H](Oc1cc(-c2nn(C)c3c(-c4cnn(C5CCN(C(=O)OCC6CCN(c7cccc8c7C(=O)N(C7CCC(=O)NC7=O)C8=O)CC6)CC5)c4)cnc(N)c23)ccc1NS(=O)(=O)C(F)F)c1ccc(F)cc1 (stereo partly drawn) [Compound 1105, {1-[2-(2,6-dioxopiperidin-3-yl)-1,3-dioxo-2,3-dihydro-1H-isoindol-4-yl]piperidin-4-yl}methyl4-(4-{4-amino-3-[4-(difluoromethanesulfonamido)-3-[(1 S)-1-(4-fluorophenyl)ethoxy]phenyl]-1-methyl-1H-pyrazolo[4,3-c]pyridin-7-yl}-1H-pyrazol-1-yl)piperidine-1-carboxylate]
Kd (human MLKL (full length)): 0.01 to 1 µM | DC50 (endogenous MLKL in MDF): < 1 µM | IC50 [1]: < 1 µM

C[C@H](Oc1cc(-c2nn(C)c3c(-c4cnn(C5CCN(C(=O)[C@H]6C[C@H](N(C)c7ccc8c(c7)C(=O)N(C7CCC(=O)NC7=O)C8=O)C6)CC5)c4)cnc(N)c23)ccc1NS(=O)(=O)C(F)F)c1ccc(F)cc1 (stereo partly drawn) [Compound 1106, N-{4-[4-amino-1-methyl-7-(1-{1-[(trans)-3-{[2-(2,6-dioxopiperidin-3-yl)-1,3-dioxo-2,3-dihydro-1H-isoindol-5-yl](methyl)amino}cyclobutanecarbonyl]piperidin-4-yl}-1H-pyrazol-4-yl)-1H-pyrazolo[4,3-c]pyridin-3-yl]-2-[(1S)-1-(4-fluorophenyl)ethoxy]phenyl}-1,1-difluoromethanesulfonamide]
Kd (human MLKL (full length)): < 0.01 µM | DC50 (endogenous MLKL in MDF): < 1 µM | IC50 [1]: < 1 µM

C[C@H](Oc1cc(-c2nn(C)c3c(-c4cnn(C5CCN(C(=O)[C@H]6C[C@H](Nc7cccc8c7C(=O)N(C7CCC(=O)NC7=O)C8=O)C6)C6(CC6)C5)c4)cnc(N)c23)ccc1NS(=O)(=O)C(F)F)c1ccc(F)cc1 (stereo partly drawn) [Compound 1107, N-{4-[4-amino-1-methyl-7-(1-{4-[(1r,3r)-3-{[2-(2,6-dioxopiperidin-3-yl)-1,3-dioxo-2,3-dihydro-1H-isoindol-4-yl]amino}cyclobutanecarbonyl]-4-azaspiro[2.5]octan-7-yl}-1H-pyrazol-4-yl)-1H-pyrazolo[4,3-c]pyridin-3-yl]-2-[(1S)-1-(4-fluorophenyl)ethoxy]phenyl}-1,1-difluoromethanesulfonamide]
Kd (human MLKL (full length)): 0.01 to 1 µM | DC50 (endogenous MLKL in MDF): < 1 µM | IC50 [1]: < 1 µM

C[C@H](Oc1cc(-c2nn(C)c3c(-c4cnn(C5CCN(C(=O)[C@]6(F)C[C@H](Nc7cccc8c7C(=O)N(C7CCC(=O)NC7=O)C8=O)C6)CC5)c4)cnc(N)c23)ccc1NS(=O)(=O)C(F)F)c1ccc(F)cc1 (stereo partly drawn) [Compound 1110, N-{4-[4-amino-1-methyl-7-(1-{1-[(trans)-3-{[2-(2,6-dioxopiperidin-3-yl)-1,3-dioxo-2,3-dihydro-1H-isoindol-4-yl]amino}-1-fluoro-cyclobutanecarbonyl]piperidin-4-yl}-1H-pyrazol-4-yl)-1H-pyrazolo[4,3-c]pyridin-3-yl]-2-[(1S)-1-(4-fluorophenyl)ethoxy]phenyl}-1,1-difluoromethanesulfonamide]
Kd (human MLKL (full length)): < 0.01 µM | DC50 (endogenous MLKL in MDF): < 1 µM | IC50 [1]: < 1 µM

C[C@H](Oc1cc(-c2nn(C)c3c(-c4cnn(C5CCN(C(=O)[C@]6(F)C[C@@H](Nc7cccc8c7C(=O)N(C7CCC(=O)NC7=O)C8=O)C6)CC5)c4)cnc(N)c23)ccc1NS(=O)(=O)C(F)F)c1ccc(F)cc1 (stereo partly drawn) [Compound 1111, N-{4-[4-amino-1-methyl-7-(1-{1-[(cis)-3-{[2-(2,6-dioxopiperidin-3-yl)-1,3-dioxo-2,3-dihydro-1H-isoindol-4-yl]amino}-1-fluorocyclobutane-carbonyl]piperidin-4-yl}-1H-pyrazol-4-yl)-1H-pyrazolo[4,3-c]pyridin-3-yl]-2-[(1S)-1-(4-fluorophenyl)ethoxy]phenyl}-1,1-difluoro-methanesulfonamide]
Kd (human MLKL (full length)): 0.01 to 1 µM | DC50 (endogenous MLKL in MDF): < 1 µM | IC50 [1]: < 1 µM

C[C@H](Oc1cc(-c2nn(C)c3c(-c4cnn(C5CCN(C(=O)[C@H]6C[C@H](Nc7cccc8c7C(=O)N(C7CCC(=O)NC7=O)C8=O)C6)C(C)(C)C5)c4)cnc(N)c23)ccc1NS(=O)(=O)C(F)F)c1ccc(F)cc1 (stereo partly drawn) [Compound 1116, N-{4-[4-amino-7-(1-{2,2-dimethyl-1-[(trans)-3-{[2-(2,6-dioxopiperidin-3-yl)-1,3-dioxo-2,3-dihydro-1H-isoindol-4-yl]amino}cyclobutanecarbonyl]piperidin-4-yl}-1H-pyrazol-4-yl)-1-methyl-1H-pyrazolo[4,3-c]pyridin-3-yl]-2-[(1S)-1-(4-fluorophenyl)ethoxy]phenyl}-1,1-difluoromethanesulfonamide]
Kd (human MLKL (full length)): < 0.01 µM | DC50 (endogenous MLKL in MDF): < 1 µM | IC50 [1]: 1 to 10 µM

C[C@H](Oc1cc(-c2nn(C)c3c(-c4cnn(C5CCN(C(=O)C6CC(N(C)c7cccc8c7C(=O)N(C7CCC(=O)NC7=O)C8=O)C6)CC5)c4)cnc(N)c23)ccc1NS(=O)(=O)C(F)F)c1ccc(F)cc1 (stereo partly drawn) [Compound 1119, N-{4-[4-amino-1-methyl-7-(1-{1-[(trans)-3-{[2-(2,6-dioxopiperidin-3-yl)-1,3-dioxo-2,3-dihydro-1H-isoindol-4-yl](methyl)amino}cyclobutanecarbonyl]piperidin-4-yl}-1H-pyrazol-4-yl)-1H-pyrazolo[4,3-c]pyridin-3-yl]-2-[(1S)-1-(4-fluorophenyl)ethoxy]phenyl}-1,1-difluoromethanesulfonamide]
Kd (human MLKL (full length)): < 0.01 µM | DC50 (endogenous MLKL in MDF): < 1 µM | IC50 [1]: < 1 µM

C[C@H](Oc1cc(-c2nn(C)c3c(-c4cnn(C5CCN(CCN6CCCC(COc7cccc8c7C(=O)N(C7CCC(=O)NC7=O)C8=O)C6)CC5)c4)cnc(N)c23)ccc1NS(=O)(=O)C(F)F)c1ccc(F)cc1 (stereo partly drawn) [Compound 1132, N-(4-{4-amino-7-[1-(1-{2-[3-({[2-(2,6-dioxopiperidin-3-yl)-1,3-dioxo-2,3-dihydro-1H-isoindol-4-yl]oxy}methyl)piperidin-1-yl]ethyl}piperidin-4-yl)-1H-pyrazol-4-yl]-1-methyl-1H-pyrazolo[4,3-c]pyridin-3-yl}-2-[(1S)-1-(4-fluorophenyl)ethoxy]phenyl)-1,1-difluoromethanesulfonamide]
Kd (human MLKL (full length)): 0.01 to 1 µM | DC50 (endogenous MLKL in MDF): < 1 µM | IC50 [1]: < 1 µM
